As a reminder, the IC50 is the midpoint of a concentration-inhibition curve.

In data set [1] the test system is SARS-CoV-2 Alpha (B.1.1.7). Nature of the data set: SARS-CoV-2 IF assay, HeLa-ACE2 (Method 1). The data set is classed as cell-based. The note with it: 2% FBS.
The nature of data set [2]: in vitro. The note with it: African green monkey, CC50 (μM), Vero 76; with CPE assays (SARS-CoV-2 WA1, Delta); not converted for FBS.
A further data set has as its system 13 viruses and variants. Nature of the data set: organism not typed. Type of data set: cell-based. The note with it: read-out: antiviral activity (best EC50 per virus/strain/variant).
The test system of data set [3] is MCF7 wild-type cell lines. In words: MCF7 growth inhibition assay (Cell Titre Glo 2.0). The data set is classed as cell-based. To be noted: Homo sapiens, MCF7, 120 h, read-out: MCF-7 IC50 (μM). The procedure: The growth inhibition properties of inhibitors on MCF7 wild-type cell lines were evaluated using the Cell Titre Glo 2.0 cell viability reagent. The assay utilized 384-well black clear bottom plates with 20 μl of MCF7 wild-type cell suspension mixed with reference/test compounds and 20 μl of Cell Titre Glo 2.0 reagent. Cells were seeded at a density of 1000 cells/well in DMEM High Glucose culture media+10% Fetal Bovine Serum (FBS). Staurosporine and Camptothecin served as positive controls for confirming cytotoxicity at a concentration of 30 μM, and vehicle control of 1% DMSO was used to standardize conditions across all test points. The assay and culture media both contained 1% DMSO. Assays were conducted in duplicate for each concentration of the test compounds. The incubation period for the assay was set at 120 hours, after which growth inhibition was assessed. Using a multi-mode reader, the assay readout was based on luminescence measured in Relative Light Units (RLUs). The viability luminescence signal was monitored continually from the same wells over an extended period, allowing for detailed analysis of cell viability. Measurements were taken using an integration time ranging from 0.25 to 1 second across plates designated for various time points.
Cells were maintained and seeded in 384 […] plates, maintaining 1000 cells/well. Seeded plates were incubated at 37° C., 5% CO2 for 16-18 hours to ensure optimal cell adherence and growth. Post-incubation, reference, and test compounds were added carefully to the wells for further processing. Plates were incubated again at 37° C., 5% CO2 for 120 hours (5 days) to allow compound effects. This was followed by the addition of CTG reagent as per the kit's instruction protocol for 30 minutes and RLU data to be recorded. Post plate read data to be analyzed using GraphPad Prism for software IC50 value generation.
Next, the NCEs were tested for selective estrogen regulation modulation activity by using a growth inhibition assay. The assay is performed on MCF7 cells, which are derived from a hormone-dependent breast cancer that stops growing upon estrogen receptor inhibition. […] Staurosporine and Camptothecin served as positive controls for cytotoxicity and 1% DMSO as the vehicle control.

In another data set the test system is MRC-5 cells. To be noted: human, 6 days.
For data set [4], the system named is SARS-CoV-2 Delta (B.1.617.2). Nature of the data set: SARS-CoV-2 CPE assay, Vero 76 (Method 2). Type of data set: cell-based. To be noted: Severe acute respiratory syndrome coronavirus 2, 2% FBS.
The next data set concerns Influenza A H1N1/WSN/33. Nature of the data set: Influenza A virus IF assay, A549 (Method 7).
Data set [5] has as its system SARS-CoV-2 USA-WA1/2020. Nature of the data set: SARS-CoV-2 viral yield reduction (VYR) assay, Caco-2 (Method 2). Type of data set: cell-based. The note with it: Severe acute respiratory syndrome coronavirus 2, 2% FBS.
Text: The antiviral assays were cell line based and consisted in transfecting each of the viruses tested in a compatible cell line. Upon infection and after drug treatment, viral survival and cell toxicity were reported from the readout of three different assays: cytopathic effect (CPE), viral yield reduction (VYR), or immunofluorescence (IF).
After sufficient virus replication occurs (3 days for SARS-CoV-2), a sample of supernatant is taken from each infected well (three replicate wells are pooled) and tested immediately or held frozen at −80° C. for later virus titer determination. After maximum CPE is observed, the viable plates are stained with neutral red dye. The incorporated dye content is quantified as described above to generate the EC50 and CC50 values.
Serial 1/10 dilutions of virus are made and plated into 4 replicate wells containing fresh cell monolayers of Vero E6 cells. Plates are then incubated, and cells are scored for presence or absence of virus after distinct CPE is observed, and the CCID50 calculated using the Reed-Muench method (24). […] Dividing EC90 by the CC50 gives the SI value for this test.
The test system of a further data set is Vero 76 cells. To be noted: with CPE assays (SARS-CoV-2 WA1, Delta), not converted for FBS.
The nature of data set [6]: in vitro. To be noted: human.
Data set [7] has as its system SARS-CoV-2 USA-WA1/2020. Nature of the data set: SARS-CoV-2 CPE assay, A549-ACE2 (Method 2). Type of data set: cell-based. To be noted: 2% FBS.
The subject of data set [8] is SARS-CoV-2 USA-WA1/2020. Nature of the data set: SARS-CoV-2 immunofluorescence (IF) assay, HeLa-ACE2 (Method 1). The data set is classed as cell-based. The note with it: Severe acute respiratory syndrome coronavirus 2, HeLa-ACE2, SARS-CoV-2 USA-WA1/2020, 2% FBS.
The next data set relates to Huh-luc/neo-ET cells. Nature of the data set: XTT cell viability assay, Huh-luc/neo-ET. The data set is classed as cell-based. To be noted: XTT, 72 hours, read-out: HCV 1b - TC50. As to the method:
(§1) Twenty-four hours after seeding the cells, the cell culture supernatant was removed from each well and replaced with 175 μL fresh complete medium minus G418. Test compounds were evaluated at a high-test concentration of 10 μM and five serial half-logarithmic dilutions in three biological replicates. In three biological replicates, Sofosbuvir was evaluated in parallel at a high-test concentration of 1 μM and five serial half-logarithmic dilutions. Compounds were first serially diluted in DMSO to 400× of each final in-well concentration. An intermediate 8× solution was prepared in a complete medium and then added to the cells in a volume of 25 μL per well. A complete medium containing an equal percentage of DMSO (v/v) was added to vehicle-treated control cells. The final DMSO concentration was 0.25% (v/v) for all samples. The cells were incubated for an additional 72 hours at 37° C./5% CO2, then HCV replication was measured by luciferase activity and cell viability was assessed in parallel using an XTT colorimetric assay.
(§2) Huh-luc/neo-ET cell viability was measured at 72 hours after treatment using the tetrazolium dye XTT (2,3-bis(2-methoxy-4-nitro-5-sulfophenyI)-5[(phenylamino)carbonyl]-2H-tetrazolium hydroxide). Mitochondrial enzymes of metabolically active cells metabolize XTT-tetrazolium to a soluble formazan product. XTT solution was prepared fresh at 1 mg/mL in DMEM. Phenazine methosulfate (PMS) solution was prepared at 0.15 mg/mL in PBS and stored in the dark at −20° C. An XTT/PMS stock was prepared immediately before use by adding 40 μL of PMS per ml of XTT solution. Fifty microliters (50 μL) XTT/PMS were added per well, and the cells were incubated for 4 hours at 37° C. The cell culture plates were then sealed with adhesive plate sealers and shaken gently or inverted several times to mix the soluble formazan product. The formazan product was measured spectrophotometrically by absorbance at 450/650 nm on a Vmax plate reader (Molecular Devices). The raw data in Softmax Pro 5.4.2 software was imported into Microsoft Excel for further analysis. Data are presented as absorbance values (450/650 nm) or the percentage of viable cells relative to vehicle-treated control (mean+1—standard deviation, n=3 biological replicates from one independent experiment).
In general terms: Tetrazolium dyes change colour on reduction, which living cells bring about.

Data set [9] can be described thus: XTT cell viability assay, Huh-luc/neo-ET. The data set is classed as cell-based. The note with it: human, Huh-luc/neo-ET cells, with HCV replicon assay, not converted, read-out: CC50. As to the method: as §1, §2
The nature of data set [10]: in vitro. The note with it: human, CC50 (μM), A549-ACE2; with CPE assays (SARS-CoV-2 WA1, Delta, OC43); not converted for FBS.
Another data set in a line: Cytotoxicity, XTT, MRC-5. The note with it: human.

Experimental for Influenza A H1N1/WSN/33: A549 cells were infected with each viral strain at MOI 0.05. After 24 h post-infection with A/WSN/33 cells were fixed with 4% formaldehyde for 30 min. Cells were briefly washed with PBS, then permeabilized with 0.1% Triton X-100 in PBS for 15 minutes. Blocking occurred at room temperature for 1 hour with 0.5% BSA in PBS followed by incubation with the NP antibody (HT103, a gift from Thomas Moran) in 0.5% BSA in PBS for 1 hour at room temperature. Cells were washed with PBS 2× and incubated with a fluorescently-labeled secondary antibody, alexa-fluor-488 (Invitrogen), in 0.5% BSA in PBS with DAPI for 45 min at room temperature. Two washes with PBS were performed before imaging the cells on a Celigo Image Cytometer. Infected cells (488 nm) and total cells (DAPI) were quantified using the Celigo (Nexcelcom) imaging cytometer. Infectivity was measured by the accumulation of viral NP protein (fluorescence accumulation). Percent infection was quantified as ((Infected cells/Total cells)−Background)*100 and the DMSO control was then set to 100% infection for analysis. Data was fit using nonlinear regression and IC50s for each experiment were determined using GraphPad Prism version 8.0.2 (San Diego, CA). Cytotoxicity was also performed using the MTT assay (Roche), according to the manufacturer's instructions. […]

On to `Cc1c(-c2ccc(O)cc2)n(Cc2ccc(OCCN3CCCCC3)cc2)c2ccc(O)cc12` [Pipendoxifene], for which the EC50 in data set [1] (SARS-CoV-2 Alpha (B.1.1.7)) was 1.2 µM; in data set [1] (Severe acute respiratory syndrome coronavirus 2, HeLa-ACE2, SARS-CoV-2 Alpha (B.1.1.7)), 0.83 µM; with 13 viruses and variants, under 10 µM; in [4], 2.4 µM; in the data set with Influenza A H1N1/WSN/33, 7.49 µM; with SARS-CoV-2 USA-WA1/2020 [5], 0.54 µM. The EC50 with SARS-CoV-2 USA-WA1/2020 [7] is 1.9 µM; with SARS-CoV-2 USA-WA1/2020 [8] it was 0.675 µM. In addition, the CC50 was 2.9 µM in “in vitro [2]”; over 1 µM in the data set on MRC-5 cells; 3.2 µM in the data set with Vero 76 cells; 1 µM in “in vitro [6]”; over 10 µM in the data set with Huh-luc/neo-ET cells; over 10 µM in the data set “in vitro [10]”. Also, the IC50 in data set [3] came out at 0.00064 µM. In addition, the CC50 at 72 h in [9] is over 10 µM. Moreover, the CC50 at 6 days in the data set “Cytotoxicity, XTT, MRC-5” is over 1 µM.

Source of the values: US20260124192A1, “COMPOUNDS, COMPOSITIONS, AND METHODS OF TREATING RNA VIRAL INFECTIONS” (priority 2024, published 2026).
